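GI50: concentration for 50% inhibition of growth. TGI: concentration producing complete growth inhibition.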
How the values were obtained:
Test in all cases: growth of human tumour cells (NCI), 384-well format
HOP-62 NSCLC = tested on: HOP-62 NSCLC
OVCAR-5 ovarian = tested on: OVCAR-5 ovarian
HL-60(TB) leukemia = tested on: HL-60(TB) leukemia
BT-549 breast = tested on: BT-549 breast
RXF 393 renal = tested on: RXF 393 renal
TK-10 renal = tested on: TK-10 renal
NCI-H460 NSCLC = tested on: NCI-H460 NSCLC
SF-268 CNS = tested on: SF-268 CNS
HCT-116 colon = tested on: HCT-116 colon
M14 melanoma = tested on: M14 melanoma
ACHN renal = tested on: ACHN renal
MDA-MB-468 breast = tested on: MDA-MB-468 breast
COLO 205 colon = tested on: COLO 205 colon
DU-145 prostate = tested on: DU-145 prostate
HT29 colon = tested on: HT29 colon
SK-MEL-2 melanoma = tested on: SK-MEL-2 melanoma
NCI-H322M lung = tested on: NCI-H322M lung
OVCAR-3 ovarian = tested on: OVCAR-3 ovarian
SF-295 CNS = tested on: SF-295 CNS
SK-OV-3 ovarian = tested on: SK-OV-3 ovarian
MDA-MB-231 breast = tested on: MDA-MB-231 breast
KM12 colon = tested on: KM12 colon
NCI-H522 lung = tested on: NCI-H522 lung
MDA-MB-435 melanoma = tested on: MDA-MB-435 melanoma
NCI-H23 lung = tested on: NCI-H23 lung
HOP-92 NSCLC = tested on: HOP-92 NSCLC
SK-MEL-28 melanoma = tested on: SK-MEL-28 melanoma
UACC-62 melanoma = tested on: UACC-62 melanoma

Question: Which results are given for `COC1CCC(n2c([C@@H]3CCCC(=O)N3c3ccc(F)c(F)c3)nc3cc(-c4c(C)noc4C)ccc32)CC1` (stereo not given in full)?
Answer: GI50 (HOP-62 NSCLC): 2920 nM; TGI (HOP-62 NSCLC): 15.4 µM; GI50 (OVCAR-5 ovarian): 11.3 µM; TGI (OVCAR-5 ovarian): 58.7 µM; GI50 (HL-60(TB) leukemia): 49.7 nM; TGI (HL-60(TB) leukemia): 1200 nM; GI50 (BT-549 breast): 2270 nM; TGI (BT-549 breast): 15.5 µM; GI50 (RXF 393 renal): 1240 nM; TGI (RXF 393 renal): 5.22 µM; GI50 (TK-10 renal): 1550 nM; TGI (TK-10 renal): 11.8 µM; GI50 (NCI-H460 NSCLC): 3.29 µM; TGI (NCI-H460 NSCLC): 16.8 µM; GI50 (SF-268 CNS): 11.9 µM; TGI (SF-268 CNS): 25.6 µM; GI50 (HCT-116 colon): 4.48 µM; TGI (HCT-116 colon): 18.4 µM; GI50 (M14 melanoma): 568 nM; TGI (M14 melanoma): 14.9 µM; GI50 (ACHN renal): 3.62 µM; TGI (ACHN renal): 16.6 µM; GI50 (MDA-MB-468 breast): 2940 nM; TGI (MDA-MB-468 breast): 18.6 µM; GI50 (COLO 205 colon): 3.44 µM; TGI (COLO 205 colon): 18.9 µM; GI50 (DU-145 prostate): 12.8 µM; TGI (DU-145 prostate): 60.4 µM; GI50 (HT29 colon): 1600 nM; TGI (HT29 colon): 13.7 µM; GI50 (SK-MEL-2 melanoma): 4.46 µM; TGI (SK-MEL-2 melanoma): 18.4 µM; GI50 (NCI-H322M lung): 3.02 µM; TGI (NCI-H322M lung): 15.6 µM; GI50 (OVCAR-3 ovarian): 2900 nM; TGI (OVCAR-3 ovarian): 16.1 µM; GI50 (SF-295 CNS): 5.05 µM; TGI (SF-295 CNS): 20 µM; GI50 (SK-OV-3 ovarian): 3.96 µM; TGI (SK-OV-3 ovarian): 16.2 µM; GI50 (MDA-MB-231 breast): 3.05 µM; TGI (MDA-MB-231 breast): 16.2 µM; GI50 (KM12 colon): 13.6 µM; TGI (KM12 colon): 28.3 µM; GI50 (NCI-H522 lung): 1380 nM; TGI (NCI-H522 lung): 12.2 µM; GI50 (MDA-MB-435 melanoma): 7.03 µM; TGI (MDA-MB-435 melanoma): 23.9 µM; GI50 (NCI-H23 lung): 10.2 µM; TGI (NCI-H23 lung): 25.1 µM; GI50 (HOP-92 NSCLC): 4.57 µM; TGI (HOP-92 NSCLC): 18.8 µM; GI50 (SK-MEL-28 melanoma): 7.88 µM; TGI (SK-MEL-28 melanoma): 21.6 µM; GI50 (UACC-62 melanoma): 385 nM

— PubChem BioAssay (NCI)
